Measured values taken from patent publication US20230000797A1, “COMPOSITIONS AND METHODS FOR TREATING MOTOR DISORDERS” (ARIZONA BOARD OF REGENTS ON BEHALF OF THE UNIVERSITY OF …, priority 2015, published 2023).
Entries after “also recorded” stand apart in the source; their conditions may differ.

How the values were obtained:
patients with PD = assay: Low-dose ketamine infusion in PD patient case studies (retrospective chart review); format: in vivo, human
Protocol: We report on five cases of low-dose ketamine infusion in patients with PD identified by a retrospective chart review (Table 1). Ketamine was indicated for a variety of co-morbid conditions. The level of documentation of PD and LID symptoms pre and post-infusion was variable, but in many cases included standardized clinical rating scales collected by Movement Disorder specialists. […] Patients were treated in the intensive care unit using a protocol developed by one of the authors (ME) for treatment of intractable headache that specified titration of ketamine to a target rate of 0.15 mg/kg/hr for a 72 hr period.

[1] = system: unilaterally 6-hydroxydopamine (6-OHDA)-lesioned PD rats; assay: Development of LID under once-weekly 10-hour infusion paradigm (LAO AIMs); format: in vivo, rat; conditions: n=9 per group; for animals that did not develop any dyskinesia or only very subtle dyskinesia: 6 and 12 mg/kg L-DOPA periods
Protocol: Unilaterally 6-hydroxydopamine (6-OHDA)-lesioned PD rats were injected daily with L-DOPA (days 0-13: 6 mg/kg; days 14-28: 12 mg/kg; i.p.) to induce dyskinesia and tested for limb, axial and oral (LAO) abnormal involuntary movements (AIMs) twice a week for 3 hours by blinded investigators.

[2] = system: unilateral 6-hydroxydopamine (6-OHDA)-lesioned rats; assay: Local-field activity recordings in M1 and DLS, rodent Parkinson's disease model; format: in vivo, rat; conditions: 20 mg/kg, 5 i.p. injections every 2 hours
Protocol: Using a 10-hour racemic ketamine paradigm (5 i.p. injections every 2 hours), simultaneous measurement of local-field activity in multiple brain structures in three awake and behaving unilateral 6-hydroxydopamine (6-OHDA)-lesioned rats, a common model of Parkinson's disease. Recordings were acquired from a 64 channel fixed electrode array. Average response across 3 animals. Power spectrogram from a 10 hour session created by averaging spectra acquired. Vertical lines indicate ketamine injection times.

striatal DA content = assay: Electrochemical detection (HPLC-EC) of striatal DA content; format: in vivo, rat
Protocol: Measurement of dopamine content: Coronal brain slices were collected and 2 mm steel biopsy punches were used to sample striatal tissue. Samples from left and right hemispheres were collected and immediately flash frozen on an aluminum pan at −70° C., as published (Flores et al., 2014). Samples massed at 2.5±0.5 mg and were then homogenized in dilute perchloric acid. High performance liquid chromatography with electrochemical detection (HPLC-EC) was used to quantify DA.

[3] = system: unilaterally 6-OHDA-lesioned LID rats; assay: L-DOPA-induced AIMs in the preclinical rat LID model (10 hr ketamine 'infusion' paradigm or acute injection); conditions: cohort #1; for L-DOPA-induced contralateral locomotor behavior / ipsiversive turning behavior (worsening of the Parkinsonism): all tested doses; for L-DOPA-induced contralateral locomotor behavior: 10 hr 'infusion'; for ipsiversive turning behavior (worsening of the Parkinsonism): in the presence of L-DOPA
[4] = system: awake and behaving naive rats; assay: Local-field activity recordings in motor cortex (M1) and dorsolateral striatum (DLS), naive rats; format: in vivo, rat; conditions: 20 mg/kg, 5 i.p. injections every 2 hours
Protocol: Using the 10-hour racemic ketamine paradigm (5 i.p. injections every 2 hours), simultaneous local-field activity in multiple brain structures in two awake and behaving naive rats was measured. Recordings were acquired from a 64 channel fixed electrode array. Average response across 2 animals and 5 sessions was obtained.

[5] = system: tyrosine hydroxylase (TH); assay: Semi-quantitative western analysis of striatal tyrosine hydroxylase expression; format: in vivo, rat; conditions: unilateral lesion; TH normalized to β-actin; n=15
Protocol: Western analysis of tyrosine hydroxylase (TH) content: After the tissue punch, described above, the remaining striata from left and right hemispheres were immediately flash frozen and stored at —70 ° C. Total protein was prepared and semi-quantitative western analysis was conducted as described (Flores et al., 2014; Yue et al., 2014) with 3 modifications. 30 μg of protein/sample was loaded and analyzed on the same blot. Secondary antibody dilution for β-actin: 1:10,000. Images were analyzed with the G:Box XR5 Chemi system (Syngene, Frederick, Md.) using GeneSys v. 1.4.0.0.

[6] = DLS and M1, after each injection

## NC12CC3CC(CC(C3)C1)C2 [amantadine]
Patients with PD; case #2, prior treatment, 200 mg daily
  LID: failed to improve

## CN[C@@]1(c2ccccc2Cl)CCCCC1=O [R-ketamine]
[1]
  animals that did not develop any dyskinesia or only very subtle dyskinesia: 1

## CNC1(c2ccccc2Cl)CCCCC1=O (racemic) [ketamine, (RS)-2-(2-Chlorophenyl)-2-(methylamino)cyclohexanone]
[2]; [6]
  gamma band activity (40-60 Hz): clear increase
  high-frequency activity (120-140 Hz): clear increase
[2]; following each injection, n=15 sessions across 3 animals
  beta-gamma cross-frequency coupling (CFC) in the DLS: reduced
Striatal DA content; acute i.p. 20 mg/kg vs. saline, 30 min before euthanasia
  striatal [DA]: unchanged
[1]; 10-hours infusion paradigm once a week, daily L-DOPA 6 then 12 mg/kg i.p.
  reduction of mean LAO AIMs scores: 50%
[1]
  animals that did not develop any dyskinesia or only very subtle dyskinesia: 4 of 9
[3]; 10 mg/kg ketamine-'infusion' given after the other treatments (test for sensitization)
  change in the already-reduced AIMs score: No change
[3]; 20 mg/kg ketamine-'infusion'
  persistent reduction of AIMs scores lasted (post-injection): at least 55 days
[3]
  L-DOPA-induced contralateral locomotor behavior: did not significantly change
  ipsiversive turning behavior (worsening of the Parkinsonism): did not acutely induce
[3]; listed as Ketamine
  L-DOPA-induced contralateral locomotor behavior: did not have a significant effect
  ipsiversive turning behavior (worsening of the Parkinsonism): did not induce ipsilateral rotations
[3]; low-dose ketamine given for a 10 hr period, 5-20 mg/kg
  anti-dyskinetic effect (LID / AIMs): dose-dependent long-term anti-dyskinetic effect; also recorded: Long-term dose-dependent reduction
[3]; n=5, p<0.05
  LAO-AIMs score, pre-K (20 mg/kg) vs last testing session: significantly reduced
[4]; M1-DLS
  coherence in the HFO frequency band: increased
[4]; M1 and DLS, after each injection
  high-frequency activity (120-140 Hz): clear increase
[4]; n=5 sessions
  correlation (r) of coherence in HFO and beta bands: −0.65
[4]; with successive injections
  coherence in the beta band: decreased
Patients with PD; case #1, 72 hr low-dose ketamine infusion
  UPDRS Dyskinesia score (sum of items 32-34): reduced
Patients with PD; case #1, at second infusion 3 years later despite increase in L-DOPA dose
  dyskinesia: free of dyskinesia
Patients with PD; case #1, during and after the infusion, carbidopa/L-DOPA dosages unchanged
  dyskinesia: improved markedly
Patients with PD; case #1, during second infusion, tremor had returned 3 weeks later
  severe tremor: resolved acutely
Patients with PD; case #1, patient diary, 72 hr low-dose ketamine infusion
  % dyskinesia on time: reduced
Patients with PD; case #1, weeks 2-4 post-K
  LID: completely resolved
Patients with PD; case #2, low-dose ketamine infusion
  dyskinesia: dramatic reduction
Patients with PD; case #3
  depression: dramatically improved
Patients with PD; case #3, during the infusion
  motor symptoms: acutely improved
Patients with PD; case #3, following the infusion
  dyskinesia: completely subsided
Patients with PD; case #4
  headache: improved
Patients with PD; cases #4 and 5 (STN DBS-treated)
  effect on motor symptoms: little effect
Patients with PD; five PD case reports overall
  tolerability and safety: excellent tolerability and safety

## NCCc1cc(O)c(O)cc1O [6-OHDA, 6-hydroxydopamine]
Striatal DA content; unilateral lesion, lesioned vs unlesioned side
  reduction of striatal DA content in the lesioned side: > 95%
[5]
  reduction of striatal TH expression in the lesioned side: 87%
